Literature values in patent US20240082296A1, “TREATMENT OF MUSCLE ATROPHY USING DEXTRAN SULFATE” (TX MEDIC AB, priority 2020, published 2024).

Test system: mouse model of muscle atrophy
Settings: after 2 weeks of treatment; cited from earlier work

recombinant HGF: recombinant hepatocyte growth factor, a naturally occurring neuroprotective and myogenic growth factor
increase in muscle mass: 18%
